Where “and” joins values, the source holds several entries; their conditions need not be identical. Equal entries are not always repeated.
How the values were obtained:
Assay type in all cases: biochemical
[1] = biological target: T1, human PLCδ1 (Homo sapiens, UniProt P51178); assay: In vitro PLC assay using fluorogenic substrate Compound 1, PLCδ1; settings: for IC50: purified PLCδ1, fluorogenic substrate Compound 1, read-out: IC50, inhibition of PLCδ1 (hydrolysis of Compound 1)
T1 construct: expressing the full-length polypeptides of human PLCε, PLCβ4, PLCδ1 and PLCγ1 as FLAG fusions; made in house; host or cells: Expi293F cells
T1 sequence (P51178 1-756): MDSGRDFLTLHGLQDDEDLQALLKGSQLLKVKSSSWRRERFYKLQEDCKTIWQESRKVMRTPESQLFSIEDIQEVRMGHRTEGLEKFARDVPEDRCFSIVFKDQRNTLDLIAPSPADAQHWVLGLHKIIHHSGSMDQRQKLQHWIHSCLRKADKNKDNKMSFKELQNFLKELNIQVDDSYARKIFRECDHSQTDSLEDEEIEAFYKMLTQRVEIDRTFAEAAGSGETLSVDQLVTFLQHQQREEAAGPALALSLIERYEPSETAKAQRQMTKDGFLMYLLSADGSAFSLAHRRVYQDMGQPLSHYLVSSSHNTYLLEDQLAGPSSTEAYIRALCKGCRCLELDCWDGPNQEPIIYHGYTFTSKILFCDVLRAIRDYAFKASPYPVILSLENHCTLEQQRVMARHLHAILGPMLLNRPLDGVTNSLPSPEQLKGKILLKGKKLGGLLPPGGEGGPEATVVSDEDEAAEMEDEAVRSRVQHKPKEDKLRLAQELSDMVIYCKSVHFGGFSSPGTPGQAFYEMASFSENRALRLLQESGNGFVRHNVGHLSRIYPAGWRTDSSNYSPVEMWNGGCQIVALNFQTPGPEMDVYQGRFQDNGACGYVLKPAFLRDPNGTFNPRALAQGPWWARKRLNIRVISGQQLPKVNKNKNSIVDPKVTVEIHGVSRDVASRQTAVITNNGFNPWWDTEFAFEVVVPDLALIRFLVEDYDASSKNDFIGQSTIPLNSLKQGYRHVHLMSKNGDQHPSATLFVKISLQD
Experimental: (§1) Ten µl of 2 × substrate solutions (50 mM HEPES pH7.2, 200 mM NaCl, 0.2 mM CaCl2, 0.4 mM DTT, 0.4 µM EDTA, 0.02% gelatin, 0.2% sodium cholate and 60 µM Compound 1) were added to each well of a 384-well plate (CONING #3573) containing 10 µl of purified PLCε (120 ng) and incubated with shaking at 30 °C for 3 h. After terminating the reaction by the addition of 2 µl of 5 mM EDTA, the fluorescence emission was measured at 520 nm with the excitation at 485 nm by a microplate reader (POLARstar Omega-25). For measuring inhibition by compounds for HTS, the reactions were conducted at RIKEN Center for Sustainable Resource Science (CSRS) as described above except that 5 µl of compound solution and 5 µl of purified PLCe (120 ng) were added to each well. Solution dispensing and fluorescence detection were conducted by using an automated dispenser (EDR-384, Biotec) and a hybrid multi-mode microplate reader (Synergy H4, Biotec), respectively. For determination of the IC50 values for ZPT and Zn^2+, the EDTA concentration was reduced to one-tenth to avoid its zinc-chelating effect. For assay of the other PLC classes, the reactions were performed similarly except that PLCβ4 (5 ng), PLCδ1 (0.1 ng) or PLCγ1 (0.3 ng) was used instead of PLCε.

[2] = biological target: T2, human PLCε (Homo sapiens, UniProt Q9P212); assay: In vitro PLC assay using fluorogenic substrate Compound 1 (HTS), PLCε; settings: for IC50: purified full-length PLCε, fluorogenic substrate Compound 1, read-out: IC50, inhibition of PLCε (hydrolysis of Compound 1)
T2 construct: expressing the full-length polypeptides of human PLCε, PLCβ4, PLCδ1 and PLCγ1 as FLAG fusions; made in house; host or cells: Expi293F cells
T2 sequence (Q9P212 whole entry, the tested form may be a part): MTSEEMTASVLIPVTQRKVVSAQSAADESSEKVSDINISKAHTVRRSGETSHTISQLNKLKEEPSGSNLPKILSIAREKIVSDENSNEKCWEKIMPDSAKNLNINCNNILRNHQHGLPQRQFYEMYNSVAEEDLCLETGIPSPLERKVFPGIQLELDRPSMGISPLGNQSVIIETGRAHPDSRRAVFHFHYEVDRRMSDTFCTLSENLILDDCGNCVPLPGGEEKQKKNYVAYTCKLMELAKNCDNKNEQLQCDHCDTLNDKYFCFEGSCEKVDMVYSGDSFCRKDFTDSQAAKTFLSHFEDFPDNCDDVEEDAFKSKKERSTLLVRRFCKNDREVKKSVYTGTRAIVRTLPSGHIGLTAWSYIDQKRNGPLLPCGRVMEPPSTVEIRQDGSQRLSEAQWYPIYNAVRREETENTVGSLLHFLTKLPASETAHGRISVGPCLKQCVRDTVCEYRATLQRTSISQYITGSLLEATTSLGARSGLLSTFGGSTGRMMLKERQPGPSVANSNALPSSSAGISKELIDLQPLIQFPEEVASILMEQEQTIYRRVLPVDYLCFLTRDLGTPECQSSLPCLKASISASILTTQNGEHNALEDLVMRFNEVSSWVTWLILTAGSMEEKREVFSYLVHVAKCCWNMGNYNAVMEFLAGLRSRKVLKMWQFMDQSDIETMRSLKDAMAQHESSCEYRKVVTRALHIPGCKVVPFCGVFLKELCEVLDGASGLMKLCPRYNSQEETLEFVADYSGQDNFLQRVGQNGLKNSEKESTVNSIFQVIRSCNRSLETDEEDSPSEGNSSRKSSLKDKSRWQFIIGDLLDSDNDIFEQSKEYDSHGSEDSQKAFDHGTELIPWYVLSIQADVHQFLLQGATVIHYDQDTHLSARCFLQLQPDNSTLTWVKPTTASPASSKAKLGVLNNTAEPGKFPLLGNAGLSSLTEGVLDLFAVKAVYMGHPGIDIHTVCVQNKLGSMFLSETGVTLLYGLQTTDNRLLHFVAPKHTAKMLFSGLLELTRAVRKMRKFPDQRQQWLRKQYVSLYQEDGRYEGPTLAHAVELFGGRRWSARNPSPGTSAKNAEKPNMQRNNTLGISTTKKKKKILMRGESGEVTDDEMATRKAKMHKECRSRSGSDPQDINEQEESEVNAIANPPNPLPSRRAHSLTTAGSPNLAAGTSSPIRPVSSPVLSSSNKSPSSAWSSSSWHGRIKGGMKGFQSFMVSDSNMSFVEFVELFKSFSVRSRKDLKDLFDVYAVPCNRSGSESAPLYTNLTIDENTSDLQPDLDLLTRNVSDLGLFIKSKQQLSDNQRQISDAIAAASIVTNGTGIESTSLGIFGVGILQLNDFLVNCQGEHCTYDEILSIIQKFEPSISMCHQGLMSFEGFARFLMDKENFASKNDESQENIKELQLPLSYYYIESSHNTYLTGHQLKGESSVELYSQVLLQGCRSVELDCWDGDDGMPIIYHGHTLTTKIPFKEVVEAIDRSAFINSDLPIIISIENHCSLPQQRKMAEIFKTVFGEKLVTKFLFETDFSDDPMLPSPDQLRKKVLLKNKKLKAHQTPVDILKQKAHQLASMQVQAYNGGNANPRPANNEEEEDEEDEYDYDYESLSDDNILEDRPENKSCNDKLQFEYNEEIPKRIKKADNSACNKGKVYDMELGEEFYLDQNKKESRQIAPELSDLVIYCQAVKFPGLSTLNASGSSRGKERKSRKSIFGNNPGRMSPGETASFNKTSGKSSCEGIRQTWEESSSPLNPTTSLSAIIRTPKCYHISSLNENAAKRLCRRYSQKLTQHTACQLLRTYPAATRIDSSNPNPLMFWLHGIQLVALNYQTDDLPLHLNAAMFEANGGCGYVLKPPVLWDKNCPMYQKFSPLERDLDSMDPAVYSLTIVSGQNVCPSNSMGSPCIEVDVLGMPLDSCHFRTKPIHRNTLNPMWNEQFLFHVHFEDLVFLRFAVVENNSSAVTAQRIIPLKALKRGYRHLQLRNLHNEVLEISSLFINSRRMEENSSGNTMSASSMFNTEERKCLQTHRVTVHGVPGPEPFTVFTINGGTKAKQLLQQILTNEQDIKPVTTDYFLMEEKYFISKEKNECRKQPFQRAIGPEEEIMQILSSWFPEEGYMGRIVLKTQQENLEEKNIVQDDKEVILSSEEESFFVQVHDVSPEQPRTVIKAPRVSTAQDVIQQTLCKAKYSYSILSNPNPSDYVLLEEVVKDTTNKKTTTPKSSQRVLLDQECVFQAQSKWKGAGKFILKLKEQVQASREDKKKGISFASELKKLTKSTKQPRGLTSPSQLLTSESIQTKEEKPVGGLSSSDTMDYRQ
Experimental: For measuring inhibition by compounds for HTS, the reactions were conducted at RIKEN Center for Sustainable Resource Science (CSRS) as described above except that 5 µl of compound solution and 5 µl of purified PLCe (120 ng) were added to each well. […] For determination of the IC50 values for ZPT and Zn^2+, the EDTA concentration was reduced to one-tenth to avoid its zinc-chelating effect. For assay of the other PLC classes, the reactions were performed similarly except that PLCβ4 (5 ng), PLCδ1 (0.1 ng) or PLCγ1 (0.3 ng) was used instead of PLCε.

[3] = biological target: T3, human PLCγ1 (Homo sapiens, UniProt P19174); assay: In vitro PLC assay using fluorogenic substrate Compound 1, PLCγ1; settings: for IC50: purified PLCγ1, fluorogenic substrate Compound 1, read-out: IC50, inhibition of PLCγ1 (hydrolysis of Compound 1)
T3 construct: expressing the full-length polypeptides of human PLCε, PLCβ4, PLCδ1 and PLCγ1 as FLAG fusions; made in house; host or cells: Expi293F cells
T3 sequence (P19174 1-1290): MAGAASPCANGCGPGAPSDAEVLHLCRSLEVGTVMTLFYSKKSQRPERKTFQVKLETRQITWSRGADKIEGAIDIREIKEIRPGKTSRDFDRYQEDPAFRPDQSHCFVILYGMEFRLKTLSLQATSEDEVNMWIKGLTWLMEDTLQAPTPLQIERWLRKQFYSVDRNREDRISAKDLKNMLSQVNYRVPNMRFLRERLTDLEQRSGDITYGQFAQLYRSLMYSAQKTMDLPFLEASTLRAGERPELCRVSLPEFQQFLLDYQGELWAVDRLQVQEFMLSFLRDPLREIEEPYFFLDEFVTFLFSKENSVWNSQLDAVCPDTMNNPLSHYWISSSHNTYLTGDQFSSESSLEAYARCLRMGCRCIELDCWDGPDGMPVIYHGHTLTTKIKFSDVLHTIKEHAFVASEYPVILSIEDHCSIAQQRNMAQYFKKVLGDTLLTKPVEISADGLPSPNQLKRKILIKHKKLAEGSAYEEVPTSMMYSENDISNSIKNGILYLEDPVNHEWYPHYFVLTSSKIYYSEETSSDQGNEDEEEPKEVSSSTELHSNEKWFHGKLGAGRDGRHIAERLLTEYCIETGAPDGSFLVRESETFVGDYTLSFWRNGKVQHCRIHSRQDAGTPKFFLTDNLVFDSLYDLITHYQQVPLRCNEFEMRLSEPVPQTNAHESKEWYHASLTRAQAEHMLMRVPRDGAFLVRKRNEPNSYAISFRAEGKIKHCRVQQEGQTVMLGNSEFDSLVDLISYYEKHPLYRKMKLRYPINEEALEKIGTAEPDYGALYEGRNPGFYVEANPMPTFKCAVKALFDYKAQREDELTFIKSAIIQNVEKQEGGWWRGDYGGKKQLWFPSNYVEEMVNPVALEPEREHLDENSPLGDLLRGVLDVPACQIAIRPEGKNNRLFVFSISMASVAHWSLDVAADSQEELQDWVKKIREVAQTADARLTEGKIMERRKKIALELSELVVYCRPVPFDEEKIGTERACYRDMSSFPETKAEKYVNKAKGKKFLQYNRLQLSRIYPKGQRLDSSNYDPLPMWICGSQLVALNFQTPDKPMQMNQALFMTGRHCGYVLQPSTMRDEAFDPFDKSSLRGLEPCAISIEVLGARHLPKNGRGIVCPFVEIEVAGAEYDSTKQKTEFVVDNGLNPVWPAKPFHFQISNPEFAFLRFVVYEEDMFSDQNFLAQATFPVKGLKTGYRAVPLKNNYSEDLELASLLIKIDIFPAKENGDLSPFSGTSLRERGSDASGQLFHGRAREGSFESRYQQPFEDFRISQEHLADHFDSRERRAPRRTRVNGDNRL
Experimental: as §1

[4] = Compound 1 as substrate, varying concentrations

Row | IC50 [1] | IC50 [2] | IC50 [3] | Compound | inhibitory activity toward PLCδ [1, 4] | PLCε inhibitory activity of ZnSO4 on addition of excess sodium pyrithione ([2]; 5 µM ZnSO4, varying concentrations of sodium pyrithione) | inhibitory activity toward PLCγ [3, 4]
1 | 7300 nM | 1300 nM | 1800 nM | COc1ccc2c(c[n+](C)c3c4cc5c(cc4ccc23)OCO5)c1OC [chelerythrine] |  |  | 
2 | 400 nM | 3100 nM | 8700 nM | CCCCCCOc1ccc2c(c1)Oc1cc(OP(=O)(O)O[C@H]3[C@H](O)[C@@H](O)[C@H](OP(=O)(O)O)[C@@H](O)[C@H]3O)ccc1C21OC(=O)c2ccccc21 (stereo partly shown) [compound 1] |  |  | 
3 |  | 1200 nM |  | O=S(=O)([O-])[O-].[Zn+2] [ZnSO4] | without exhibiting any noticeable inhibitory activities | compromised the inhibitory activity of ZnSO4 in a dose-dependent manner | without exhibiting any noticeable inhibitory activities

Row | Compound | IC50 [1] | IC50 [2] | IC50 [3] | inhibitory activity toward PLCδ [1, 4] | PLCε inhibitory activity of ZnSO4 on addition of excess sodium pyrithione ([2]; 5 µM ZnSO4, varying concentrations of sodium pyrithione) | inhibitory activity toward PLCγ [3, 4]
4 | C[n+]1cc2c3c(ccc2c2ccc4cc5c(cc4c21)OCO5)OCO3 [Sanguinarine, sanguinarine] | 48000 nM and 47800 nM | 1900 nM | 1600 nM |  |  | 

Source: article PMC12647759 (Scientific Reports, 2025)
